The values below come from patent US20230285258A1, “A SUNSCREEN FORMULATION” (priority 2019, published 2023).

A short description of data set [1]: Mice skin penetration test (ointment on shaved back, plasma HPLC).
Procedure: Mice preparation and blood sample taking: A group of mice ranging from 16 to 60 were fed with adequate food and water for 3 days. Twelve hours before the test the food was removed, and only water was given. Usually 12 mice were randomly selected with 2 mice assigned for each time points of 5, 15, 30, 60, 90, 120 minutes. Sometimes 3 mice may be selected for certain sample time points. Two hours before the test the mice were subjected to anesthesia and the hair on the back (2.5--3.0 cm^2) was removed. After recovering from anesthesia mice will be applied with testing ointment sample. The exact same testing procedures will be carried out with the control standard sample. At 5, 15, 30, 60, 90, 120 min. Blood sample (1 mL) will be collected after removing the eyes.
Blood sample pretreatment: after the blood sample was taken, it was immediately subjected to centrifugation 10 min. at 12000 rpm, supernatant plasma layer was taken, preserved at -20° C. for later use.
Blood sample preparation: Accurately transfer 150 µL plasma sample to a 1.5 mL EP test tube. Add methanol and acetonitrile 200 µL, respectively. Vertex mix for 1 min., then centrifuge for 10 min. at 12000 rpm. Precisely transfer the supernatant solution to another test tube. At 40° C. blow N2 through to dryness. To the solids left add methanol 150 µL, vertex mix for 1 min. centrifuge at 12000 rpm for 10 min. Supernatant solution was used directly for HPLC analysis.
(4-Aminomethoxy-2-hydroxy-phenyl)-phenyl-methanone-PAA-OMe-OPr(40): Column: C18 RP column (250 × 4.6 mm, 5 µm); column temperature: 25° C.; mobile phase: MeOH:0.05% Formic Acid = 70:30; Flow rate: 1.0 mL/min.; Wavelength: 310 nm; Injection volume: 20 L;
1-[4-(3-Amino-propoxy)-2-hydroxy-phenyl1-3-(4-tert-butyl-phenyl)-propane)-1,3-dione-PAA-OMe-OPr(40): Column: C18 RP column (250 × 4.6 mm, 5 m); column temperature: 25° C.; mobile phase: MeOH:0.05% Formic Acid = 80:20; Flow rate: 1.0 mL/min.; Wavelength: 360 nm; Injection volume: 20 µL; […]
For data set [2] the following is noted: formulation containing 10%, 2 mg/cm^2 daily for a week, cited from earlier work.
The conditions of data set [3]: US general population 2003-2004; cited from earlier work.
The conditions of data set [4]: Californian females 2007-2009; cited from earlier work.
The nature of data set [5]: Urine samples collected in 2007-2009 from Californian females. It is filed as in vivo, human. As to conditions: from 22.9 ng/mL to 200 ng/mL. The procedure: Since the first day of sunscreen usage in 1930s, the exposure to sunscreen agents has begun. Initially the scope and frequency of the sunscreen usage among the human population was very limited. Therefore, the levels of UV filters found in human samples were usually low. However, for the last 20 years, the situation changed dramatically. In one epidemiological study conducted in 2003-2004, 2517 urine samples from United States (US) general population were analyzed for the presence of oxybenzone (benzophenone-3, bp-3), as part of the 2003-2004 National Health and Nutrition Examination Survey [A.M. Calafat, L.Y.Wong, X.YE, J.A.Reidy, L.L.Needham, Concentrations of the sunscreen agent benzophenone-3 in residents of the United States: National Health and nutrition Examination Survey 2003-2004, Environ. Health Perspect, 116(2008)893-897]. Oxybenzone was detected in 97% of the all samples with mean concentration of 22.9 ng/ml and 95th percentile concentration of 1040 ng/ml. As the data indicated the sunscreen agent occurrences is widespread. […] 543(2016)28-36]. […]

As to Octandioic Oxybenzone Ester, the “hydrolysis in the plasma” value in data set [1] (inferred from mice blood samples after topical application) is given as “rapid hydrolysis”. Further, the “sunscreen agent detected in plasma/blood samples by HPLC” value in data set [1] (mice, samples at 5, 15, 30, 60, 90, 120 min after topical application) is “no octandioic oxybenzone esters was detected”. The “skin penetration of the sunscreen agent” value in data set [1] (topical test formulation on mice back, plasma at 5-120 min, compared with control formulation) is reported as “skin penetration of octandioic oxybenzone ester”.
For `COc1ccc(C(=O)c2ccccc2)c(O)c1` [oxybenzone], the “mean urine concentration, females” value in data set [2] (adults) is 60 ng/mL. Moreover, in data set [2], the “maximum plasma concentration, females” value was 200 ng/mL and the “maximum plasma concentration, males” value was 300 ng/mL. Moreover, in data set [3], the “95th percentile concentration in urine” value is 1040 ng/mL and the “mean concentration in urine” value was 22.9 ng/mL. In data set [4], the “average level in urine samples” value is reported as “around 200 ng/ml” and the “highest level in urine samples” value is given as “up to 13000 ng/ml”. Moreover, the “increase of average concentration in urine sample compared to the 2003-2004 study” value in data set [5] is listed as “more than 9 folds”.
`CCCCC(CC)COC(=O)C=Cc1ccc(OC)cc1` (stereo not drawn) [octyl methoxycinnamate]: in data set [2] (adults), the “mean urine concentration, females” value was 5 ng/mL and the “mean urine concentration, males” value is 8 ng/mL. Besides, in data set [2], the “maximum plasma concentration, females” value is 10 ng/mL and the “maximum plasma concentration, males” value was 2 ng/mL.
Take `Cc1ccc(C=C2C(=O)C3(C)CCC2C3(C)C)cc1` (stereo not drawn) [4-methylbenzylidene camphor]: the “mean urine concentration, females” value in data set [2] (adults) is 5 ng/mL. In addition, in data set [2], the “maximum plasma concentration, females” value was 20 ng/mL and the “maximum plasma concentration, males” value is 20 ng/mL.
